Reference: US20170027172A1, “USE OF SUBSTITUTE OXO TETRAHYDROQUINOLINE SULFONAMIDES OR SALTS THEREOF FOR RAISING STRESS TOLERANCE OF PLANTS” (BAYER CROPSCIENCE AKTIENGESELLSCHAFT, priority 2014, published 2017)

Test system: Triticum aestivum
Assay: Drought stress test on wheat Part D, reduction in damage intensity from fresh weights
Format: in vivo
Settings: efficacy = reduction in damage intensity (fresh weight) under drought stress, 25 g/ha, at least three repeats
From the text: Wheat grains were sown in a standardized number in sandy loam soil plastic pots, covered with soil or sand and grown in a greenhouse under good growth conditions. Pots with uneven degrees of emergence were excluded prior to the start of the trial. The treatment with test substances was effected at the early leaf stage (BBCH10-BBCH13). To assure uniform water supply, the potted plants were supplied with water by dam irrigation prior to substance application. The inventive compounds were first formulated as wettable powders (WP) or dissolved in a solvent mixture. The further dilution was effected with water supplemented with 0.2% wetting agent (e.g. agrotin). The finished spray liquor was sprayed onto the green parts of the plant at an equivalent water application rate of 600 l/ha. Substance application was followed immediately by stress treatment of the plants. Drought stress was induced by gradual drying out under the following conditions: “Day”: 14 hours with illumination at 26-30° C. “Night”: 10 hours without illumination at 18-20° C. The duration of the respective stress phases was guided mainly by the condition of the stressed control plants. It was ended (by re-irrigating and transfer to a greenhouse with good growth conditions) as soon as irreversible damage was observed on the stressed control plants. The end of the stress phase was followed by an about 7-day recovery phase, during which the plants were once again kept under good growth conditions in a greenhouse. The exact duration of the recovery phase was variable for reasons related to the trial. At the end of the recovery phase, the fresh weights of the plant parts above ground were determined. By comparison with unstressed control plants which were kept under good growth conditions over the entire duration of the trial, percentage damage intensities were first calculated from the fresh weight values. The reduction in damage intensity resulting from treatment with test substance was then calculated by the following formula: [formula] EF: Efficacy DIs: Damage intensity of the stressed control plants DIt: Damage intensity of the stressed plants treated with test compound The values reported in table D-1 below are results from at least three repeats. BRSNS=Brassica napus TRZAS=Triticum aestivum

COC(=O)CCN1C(=O)CCc2cc(NS(=O)(=O)Cc3ccc(F)cc3)ccc21 [A51-158]
EF [%] (TRZAS): 11%
